# Results reported in PMC6039563, “Functional Identification and Characterization of the Diuretic Hormone 31 (DH31) Signaling System in the Green Shore Crab, Carcinus maenas” (Frontiers in Neuroscience, 2018).
# Ends that are not written are not given here.
# Assays:
# C. maenas DH31R [1] = molecular target: T1, C. maenas DH31R (Carcinus maenas, UniProt A0A345BTT1); assay: aequorin luminescence Ca2+ mobilization assay, CHO-K1-Aeq-Gα16 cells transiently expressing DH31R; type: cell-based; settings: for EC50: read-out: EC50 of luminescence response; for luminescence response / activation of DH31R: DH31R-transfected CHO-K1-Aeq cells, tested up to micromolar levels
# T1 sequence (A0A345BTT1 1-442): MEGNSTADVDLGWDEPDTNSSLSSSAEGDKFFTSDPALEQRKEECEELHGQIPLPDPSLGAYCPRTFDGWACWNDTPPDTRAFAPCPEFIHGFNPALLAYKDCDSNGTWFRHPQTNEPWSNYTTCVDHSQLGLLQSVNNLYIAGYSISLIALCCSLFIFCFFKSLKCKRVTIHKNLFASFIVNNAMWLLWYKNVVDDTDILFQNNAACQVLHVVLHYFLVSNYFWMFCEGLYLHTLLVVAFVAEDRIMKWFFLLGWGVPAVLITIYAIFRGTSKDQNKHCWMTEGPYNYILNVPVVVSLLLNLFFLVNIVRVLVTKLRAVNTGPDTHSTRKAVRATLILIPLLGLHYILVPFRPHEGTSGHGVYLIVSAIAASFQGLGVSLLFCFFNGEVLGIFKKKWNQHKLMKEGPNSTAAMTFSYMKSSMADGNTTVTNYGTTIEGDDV
# Method: (§1) Cells were then diluted 10-fold prior to assay.
# Amino acid sequences are shown in Supplementary Table S2. […] Receptor responses were normalized against total Ca^2+ luminescence.
# C. maenas DH31R [2] = molecular target: T1, C. maenas DH31R; assay: cell-based
# Method: as §1
# Amino acid sequences are shown in Supplementary Table S2. […] Ca^2+ evoked luminescence was recorded for 40 s, followed by cell lysis (injection of 0.3% Triton-X 100 in BSA medium), and light emission recorded for a further 10 s. […] Receptor responses were normalized against total Ca^2+ luminescence.
# [3] = CHO-K1-Aeq-Gα16 cells transiently expressing DH31R, simultaneously performed experiments with three DH31s (Figure 3 main panel), means of n = 4
Substance,EC50 (C. maenas DH31R [1]; [3]) [nM],luminescence response / activation of DH31R (C. maenas DH31R [1]),also measured
GLDLGLGRGFSGSQAAKHLMGLAAANFAGGP-NH2 [Tribolium castaneum DH31],~30,,
GLDLGLSRGFSGSQAAKHLMGLAAANYAGGP-NH2 [Diploptera punctata DH31],~30,,
GLDMGLGRGFSGSQAAKHLMGLAAANYAGGP-NH2 [C. maenas DH31],~30,,"EC50 (C. maenas DH31R [1]; CHO-K1-Aeq-Gα16 cells transfected with DH31R, Figure 3 inset, independent set of transfections, means of N = 4): ~15 nM; EC50 (C. maenas DH31R [2]): ~15 nM"
"MQRPQGPSLSVANPIEVLRSRLLLEIARRRMKEQDASRVSKNRQYLQQIG [R. prolixus CRF-like DH, Rhodnius prolixus corticotropin releasing factor-like diuretic hormone (I. Orchard, Toronto)]",,No luminescence responses,
"NSELINSLGLPKVMNDA-NH2 [C. maenas PDH-1, C. maenas pigment dispersing hormone-1 (Liverpool University)]",,No luminescence responses,luminescence response / activation of DH31R (C. maenas DH31R [1]; listed as PDH-1): does not activate
